≈ marks a conversion by molar mass, not a printed value. Read-outs that look alike come from different tables or passages of the source.
Key:
[1] = system: H. influenzae<> GC6896 (ATCC Control); test: MIC broth microdilution, H. influenzae GC6896 (ATCC Control); format: cell-based; conditions: 18-22 hours at 35° C.
Method: (§1) Methods for in Vitro Antibacterial Evaluation
(§2) The minimum inhibitory concentration (MIC)
(§3) Antimicrobial susceptibility testing. The in vitro activities of representative examples of antibiotics of the invention are determined by the broth microdilution method as recommended by the National Committee for Clinical Laboratory Standards (NCCLS) (1). Mueller-Hinton II broth (MHBII)(BBL Cockeysville, Md.) is the medium employed in the testing procedures. Microtiter plates containing serial dilutions of each antimicrobial agent are inoculated with each organism to yield the appropriate density (10^5 CFU/ml) in a 100 μl final volume. The plates are incubated for 18-22 hours at 35° C. in ambient air. […] NCCLS. 2000. Methods for Dilution Antimicrobial Susceptibility Tests for Bacteria That Grow Aerobically; Approved Standards: M7-A5, vol. 20. National Committe for Clinical Laboratory Standards, Wayne, Pa.

[2] = system: E. faecalis GC2267 (tet(L) + (M) + (S)); test: MIC broth microdilution, E. faecalis GC2267 (tet(L) + (M) + (S)); format: cell-based; conditions: MHBII, 18-22 hours at 35° C.
Method: as §1, §2, §3

[3] = system: S. aureus GC6467 (tet(M) + (K)); test: MIC broth microdilution, S. aureus GC6467 (tet(M) + (K)); format: cell-based; conditions: MHBII, 18-22 hours at 35° C.
Method: as §1, §2, §3

[4] = system: E. coli GC4560 (IMP mutant); test: MIC broth microdilution, E. coli GC4560 (IMP mutant); format: cell-based; conditions: MHBII, 18-22 hours at 35° C.
Method: as §1, §2, §3

[5] = system: S. pyogenes* GC4563 (Clinical); test: MIC broth microdilution, S. pyogenes GC4563 (Clinical); format: cell-based; conditions: 18-22 hours at 35° C.
Method: as §1, §2, §3

[6] = system: E. coli GC4559 (parent GC4560); test: MIC broth microdilution, E. coli GC4559 (parent GC4560); format: cell-based; conditions: MHBII, 18-22 hours at 35° C.
Method: as §1, §2, §3

[7] = system: S. aureus GC2216 (ATCC Control); test: MIC broth microdilution, S. aureus GC2216 (ATCC Control); format: cell-based; conditions: MHBII, 18-22 hours at 35° C.
Method: as §1, §2, §3

[8] = system: S. aureus GC1131 (Clinical); test: MIC broth microdilution, S. aureus GC1131 (Clinical); format: cell-based; conditions: MHBII, 18-22 hours at 35° C.
Method: as §1, §2, §3

[9] = system: E. coli GC2203 (ATCC Control); test: MIC broth microdilution, E. coli GC2203 (ATCC Control); format: cell-based; conditions: MHBII, 18-22 hours at 35° C.
Method: as §1, §2, §3

[10] = system: E. faecalis GC2242 (Van-resistant); test: MIC broth microdilution, E. faecalis GC2242 (Van-resistant); format: cell-based; conditions: MHBII, 18-22 hours at 35° C.
Method: as §1, §2, §3

[11] = system: S. aureus GC1079 (tet(K)); test: MIC broth microdilution, S. aureus GC1079 (tet(K)); format: cell-based; conditions: MHBII, 18-22 hours at 35° C.
Method: as §1, §2, §3

[12] = system: E. faecalis GC4555 (ATCC Control); test: MIC broth microdilution, E. faecalis GC4555 (ATCC Control); format: cell-based; conditions: MHBII, 18-22 hours at 35° C.
Method: as §1, §2, §3

[13] = system: S. pneumoniae* GC4465 (Clinical); test: MIC broth microdilution, S. pneumoniae GC4465 (Clinical); format: cell-based; conditions: 18-22 hours at 35° C.
Method: as §1, §2, §3

[14] = system: S. pneumoniae* GC1894 (Clinical); test: MIC broth microdilution, S. pneumoniae GC1894 (Clinical); format: cell-based; conditions: 18-22 hours at 35° C.
Method: as §1, §2, §3

[15] = system: Staphylococcal aureus Smith M P; test: MIC reported in Table 2 beside the in vivo ED50; format: cell-based; conditions: Staphylococcus aureus, infecting strain S. aureus Smith MP
Method: Antimicrobial susceptibility testing. The in vitro activities of representative examples of antibiotics of the invention are determined by the broth microdilution method as recommended by the National Committee for Clinical Laboratory Standards (NCCLS) (1). Mueller-Hinton II broth (MHBII)(BBL Cockeysville, Md.) is the medium employed in the testing procedures. Microtiter plates containing serial dilutions of each antimicrobial agent are inoculated with each organism to yield the appropriate density (10^5 CFU/ml) in a 100 μl final volume. The plates are incubated for 18-22 hours at 35° C. in ambient air. […] NCCLS. 2000. Methods for Dilution Antimicrobial Susceptibility Tests for Bacteria That Grow Aerobically; Approved Standards: M7-A5, vol. 20. National Committe for Clinical Laboratory Standards, Wayne, Pa. In Vivo Antibacterial Evaluation: The therapeutic effects of representative examples of the invention are determined against acute lethal infection with Staphylococcal aureus Smith M P, Female mice, strain CD-1 (Charles River Laboratoties), ca. 20 grams, are challenged by an intraperitoneal injection of sufficient bacteria (suspended in broth or hog mucin) to kill non-treated controls within 24-28 hours. Antibacterial agents, contained in 0.5 ml of 0.2% aqueous agar, are administered subcutaneously or orally 30 minutes after injection. When an oral dosing schedule is used, animal are deprived of food for 5 hours before and 2 hours after injection. Five mice are treated at each dose level. The 7 day survival ratios from 3 separate tests are pooled for calculation of median effective dose (ED50).

[16] = system: Staphylococcal aureus Smith M P; test: In vivo antibacterial evaluation, acute lethal infection in mice; conditions: Mus musculus, iv, 168 h; single intraveneous dose; female CD-1 mice; 7 day survival ratios, 3 tests pooled; read-out: SIV* ED50
[17] = system: S. aureus GC4536 (Smith MP -In Vivo); test: MIC broth microdilution, S. aureus GC4536 (Smith MP -In Vivo); format: cell-based; conditions: MHBII, 18-22 hours at 35° C.
Method: as §1, §2, §3

[18] = system: E. coli GC2270 (tet(M)); test: MIC broth microdilution, E. coli GC2270 (tet(M)); format: cell-based; conditions: MHBII, 18-22 hours at 35° C.
Method: as §1, §2, §3

[19] = system: M. catarrhalis* GC6907 (Clinical); test: MIC broth microdilution, M. catarrhalis GC6907 (Clinical); format: cell-based; conditions: 18-22 hours at 35° C.
Method: as §1, §2, §3

[20] = system: Staphylococcal aureus Smith M P; test: In vivo antibacterial evaluation, acute lethal infection in mice; conditions: Mus musculus; single oral dose 30 minutes after intraperitoneal challenge; female CD-1 mice; 7 day survival ratios, 3 tests pooled; read-out: SOD* ED50
Method: In Vivo Antibacterial Evaluation: The therapeutic effects of representative examples of the invention are determined against acute lethal infection with Staphylococcal aureus Smith M P, Female mice, strain CD-1 (Charles River Laboratoties), ca. 20 grams, are challenged by an intraperitoneal injection of sufficient bacteria (suspended in broth or hog mucin) to kill non-treated controls within 24-28 hours. Antibacterial agents, contained in 0.5 ml of 0.2% aqueous agar, are administered subcutaneously or orally 30 minutes after injection. When an oral dosing schedule is used, animal are deprived of food for 5 hours before and 2 hours after injection. Five mice are treated at each dose level. The 7 day survival ratios from 3 separate tests are pooled for calculation of median effective dose (ED50).

[21] = system: E. coli GC1073 (tet(B)); test: MIC broth microdilution, E. coli GC1073 (tet(B)); format: cell-based; conditions: MHBII, 18-22 hours at 35° C.
Method: as §1, §2, §3

[22] = system: S. aureus GC6466 (tet(M)); test: MIC broth microdilution, S. aureus GC6466 (tet(M)); format: cell-based; conditions: MHBII, 18-22 hours at 35° C.
Method: as §1, §2, §3

[23] = system: C. albicans GC3066 ATCC (Control); test: MIC broth microdilution, C. albicans GC3066 ATCC (Control); format: cell-based; conditions: 18-22 hours at 35° C.
Method: as §1, §2, §3

SMILES	minimum inhibitory concentration (MIC) [1]	minimum inhibitory concentration (MIC) [2]	minimum inhibitory concentration (MIC) [3]	minimum inhibitory concentration (MIC) [4]	minimum inhibitory concentration (MIC) [5]	minimum inhibitory concentration (MIC) [6]	minimum inhibitory concentration (MIC) [7]	minimum inhibitory concentration (MIC) [8]	minimum inhibitory concentration (MIC) [9]	minimum inhibitory concentration (MIC) [10]	minimum inhibitory concentration (MIC) [11]	minimum inhibitory concentration (MIC) [12]	minimum inhibitory concentration (MIC) [13]	minimum inhibitory concentration (MIC) [14]	MIC [15] [µg/mL]	ED50 [16] [mg/kg]	minimum inhibitory concentration (MIC) [17]	minimum inhibitory concentration (MIC) [18]	minimum inhibitory concentration (MIC) [19]	ED50 [20] [mg/kg]	further results
CON(C)CC(=O)Nc1cc(N(C)C)c2c(c1O)C(=O)C1=C(O)[C@]3(O)C(=O)C(C(N)=O)=C(O)[C@@H](N(C)C)[C@@H]3C[C@@H]1C2 [Example 7, (4S,4aS,5aR,12aS)-4,7-bis(dimethylamino)-3,10,12,12a-tetrahydroxy-9-[(N-methoxy-N-methylglycyl)amino]-1,11-dioxo-1,4,4a,5,5a,6,11,12a-octahydrotetracene-2-carboxamide]	4	8	>64	1	0.25	>64	2	4	>64	2	32	1	0.50	0.50	2 (≈ 3.49 µM)	0.5 to 2	2	>64	0.50	16 to 32	minimum inhibitory concentration (MIC) [21]: >64; minimum inhibitory concentration (MIC) [22]: 2; minimum inhibitory concentration (MIC) [23]: >64
CN(C)c1cc(NC(=O)CN2CCCCO2)c(O)c2c1C[C@H]1C[C@H]3[C@H](N(C)C)C(O)=C(C(N)=O)C(=O)[C@@]3(O)C(O)=C1C2=O [Example 8, (4S,4aS,5aR,12aS)-4,7-bis(dimethylamino)-3,10,12,12a-tetrahydroxy-9-[(1,2-oxazinan-2-ylacetyl)amino]-1,11-dioxo-1,4,4a,5,5a,6,11,12a-octahydrotetracene-2-carboxamide]	64	8	64	2	1	>64	2	4	>64	2	16	2	1	0.50	2 (≈ 3.34 µM)	0.56	2	>64	1	3.59	minimum inhibitory concentration (MIC) [21]: >64; minimum inhibitory concentration (MIC) [22]: 2; minimum inhibitory concentration (MIC) [23]: >64
